One series concerns HFDPCs. Briefly: Proliferation of HFDPCs (MTT), Experimental Example 1. It counts as cell-based, human. The following applies: 48 hours, vs untreated cells. An excerpt: The activation effect by a glycoside of an oleanane-type triterpenoid was examined using dermal papilla cells of human hair follicles (HFDPCs) which are mesenchymal cells separated from the papilla of the scalp hair follicle of a normal human. As the glycoside of the oleanane-type triterpenoid (which may hereinafter be referred to as “saponin”), arganine D, arganine E, and butyroside D were used. A high proliferation rate of the HFDPCs is correlated with the acceleration of the hair growth cycle.
First, HFDPCs were seeded in a 96-well plate at […] and incubated at 37° C. in a humidified atmosphere of 5% CO2. As a culture medium, a culture medium for hair papilla cell growth to which growth factors (a bovine fetal serum, an insulin, a transferrin, a triiodothyronine, a bovine pituitary extract, or a cyproterone solution) had been added was used.
After 24 hours, the culture medium was exchanged with a culture medium containing each of various concentrations of each saponin, and the cells were incubated for 48 hours.
Subsequently, the cell proliferation was measured using 3-(4,5-dimethyl-thiazol-2-yl)-2,5-diphenyltetrazolium bromide (MTT). Specifically, an MTT reagent (5 mg/mL) was added to the cells and incubated for 8 hours, then 10% sodium dodecyl sulfate (SDS) was added thereto, and the cells were incubated overnight. Thereafter, the absorbance at 570 nm was measured using a microplate reader, and the cell proliferation was quantified as the proportion (%) of the absorbance to an absorbance of the untreated cells. In addition, the survival rate of cells was also measured by a trypan blue exclusion method.

For series [1], the system named is dorsal skin. In words: Gene ontology (GO), GO enrichment and tissue-specific expression analysis of transcriptome, Experimental Example 7. The format is in vivo, mouse. The settings on record: 20th day. On the procedure:
Gene ontology (GO) analysis and GO enrichment analysis were performed based on the results of the transcriptome analysis in Experimental Example 6.
Subsequently, term enrichment analysis of the genes with expression increased specifically with respect to the skin tissue was performed. Using tissue-specific expression analysis (TSEA), genes related to the skin tissue were filtered, and functions that were specifically enriched in the maslinic acid treatment group and the tieghemelin treatment group and were not enriched in the minoxidil treatment group were selected.

The subject of the next series is C3H male mouse. Briefly: Hair growth promoting effect in vivo, application to depilated dorsal skin, Experimental Example 5. The following applies: 150 μL of 1% applied to dorsal skin every day for 20 days. On the procedure:
The oleanane-type triterpenoid was applied to the dorsal skin of a mouse and the hair growth promoting effect was examined. Maslinic acid was used as the oleanane-type triterpenoid. In addition, for comparison, a group in which minoxidil was used and a control group in which only a solvent was applied were prepared.
FIG. 12 is a schematic view showing an experimental schedule. After acclimatization of a C3H male mouse, the dorsal skin was depilated with a shaver and a depilatory cream. Thereafter, 150 μL of 1% minoxidil (n=8), 1% maslinic acid (n=6), or a solvent (n=8) was applied to the mouse in each group every day for 20 days, and the mouse was observed over time.
It is known that the hair cycle of a mouse has three stages of an anagen, a catagen, and a telogen. During the anagen (the 1st day to the 16th day), the hair follicle grows into the deep subcutaneous part. In the catagen (the 17th day to the 19th day), the hair follicle stops growing and regresses to the upper subcutaneous part. In the telogen (the 20th day to the 29th day), the hair shaft is in a state where it can be lost at any time. It is known that the color of the dorsal skin of a mouse changes to pink, gray, and black due to the hair cycle. FIG. 13 is a view showing a change in the color of the dorsal skin of a mouse due to the hair cycle.

Series [2] deals with HFDPC. Briefly: Quantitative real-time RT-PCR of hair growth markers in HFDPC, Experimental Example 3. It counts as cell-based, human. The following applies: 48 hours; for expression level of the FGF1 gene in the HFDPC / expression level of the ALPL gene in the HFDPC / expression level of the CTNNB1 gene in HFDPC: vs control. On the procedure:
The HFDPC was treated with butyroside D, and then the expression of the hair growth marker was confirmed by quantitative real-time RT-PCR.
As the hair growth markers, a CTNNB1 gene (β-catenin), an ALPL gene (alkaline phosphatase), and an FGF1 gene (fiblobrast growth factor 1) were examined. It is known that the β-catenin induces anagen of the hair cycle and promotes the proliferation of keratinocytes. ALPL is a representative hair growth marker in the hair papilla cells. FGF1 is a marker for morphogenesis of hair follicles.
HFDPCs were seeded in a 6-well plate at 5×10^4 cells/well and incubated at 37° C. for 24 hours. Subsequently, the culture medium was removed and exchanged with a culture medium including 0 (Control), 0.5, 5, and 10 nM of butyroside D. In addition, for comparison, cells treated with a culture medium including minoxidil (0.1 μM), which is an existing pharmaceutical product, were also prepared.
Subsequently, after 48 hours, the cells were washed with cold PBS and a total RNA was extracted using an ISOGEN kit (Nippon Gene Co., Ltd.). Next, the total RNA was quantified using a NanoDrop 2000 spectrophotometer (Thermo Fisher Scientific) and quantitative real-time RT-PCR analysis was performed.
First, using a SuperScript III reverse transcription kit (Thermo Fisher Scientific), a cDNA was synthesized from the extracted total RNA by a cycling protocol of 95° C. for 10 minutes, 40 cycles of 95° C. for 15 seconds, and 60° C. for 1 minute.
Subsequently, a real-time PCR was performed using a 7500 Fast Real-Time PCR system (Software 1.3.1, Thermo Fisher Scientific) and TaqMan probes specific for CTNNB1, ALPL, and FGF1. GAPDH was used as an endogenous control and the relative mRNA amount was calculated by applying a 2^−ΔΔCt method by comparison with GAPDH.

Series [3] has as its system HFDPC. Described as above. It counts as cell-based, human. The settings on record: vs 0.1 M minoxidil (so in the source), 48 hours.
Series [4] has as its system dorsal skin. In words: Fluorescence immunostaining of dorsal skin tissue sections, Experimental Example 10. It counts as in vivo, mouse. The following applies: 20th day. An excerpt: A mouse in each group of Experimental Examples 5 and 6 was euthanized on the 20th day, the dorsal skin was collected, and the tissue section was subjected to immunostaining.
FIG. 23 is a photomicrograph showing the results of detecting the expressions of β-catenin and K14 by fluorescence immunostaining. In addition, the nuclei were stained with 4′,6-diamidino-2-phenylindole (DAPI). The β-catenin is a hair growth promoting marker and is also a marker for the start of the anagen. K14 is an epidermal marker and is known to increase with the differentiation of hair follicle stem cells.
FIG. 24 is a photomicrograph showing the results of detecting the expression of VEGF by fluorescence immunostaining. In addition, the nuclei were stained with DAPI. VEGF is known to improve the vascularization of hair follicles, increase the size of hair follicles and hair, and promote the growth and circulation of hair follicles.

The next series has as its system hair cycle-related genes. In words: Fluctuation in expression of hair cycle-related genes from transcriptome, Experimental Example 9. The format is in vivo, mouse. The following applies: dorsal skin, 20th day. The source says: A fluctuation in expression of the hair cycle-related genes was examined, based on the results of the transcriptome analysis in Experimental Example 6.

Another series deals with Iqcb1. In words: Iqcb1 expression from transcriptome / extended network analysis, Experimental Example 8. The format is in vivo, mouse. The following applies: dorsal skin, 20th day, 1% applied daily. Here is the method:
(§1) Extended network analysis was performed based on the results of the transcriptome analysis in Experimental Example 6. FIGS. 20 to 22 are views showing the results of the extended network analysis. FIG. 20 is an analysis result obtained from a dataset of the minoxidil treatment group, FIG. 21 is an analysis result obtained from a dataset of the maslinic acid treatment group, and FIG. 22 is an analysis result obtained from a dataset of the tieghemelin treatment group. In FIGS. 20 to 22, a white circle indicates a gene with increased expression, and a black circle indicates a gene with decreased expression. In addition, the size of the circle indicates the magnitude of a change in expression level.
DDX58 is an innate immune receptor that senses viral nucleic acids in the cytoplasm and activates a downstream signal transduction cascade leading to the production of type I interferons or inflammatory cytokines. IQCB1 is a protein known to be involved in formation of cilium.

Series [5] deals with dorsal skin. Briefly: Transcriptome analysis and extended network analysis of dorsal skin, Experimental Examples 6 and 8. The following applies: 20th day, 1% applied daily; maslinic acid group vs tieghemelin group. It counts as in vivo, mouse. On the procedure:
A mouse in each group of Experimental Example 5 and a mouse in the group which had been subjected to the same treatment as in Experimental Example 5 using 1% tieghemelin (n=6) were euthanized on the 20th day, and the dorsal skin was collected and subjected to transcriptome analysis.
as §1

The mark [6] stands for this setting: fluorescence immunostaining, dorsal skin.

On to arganine D, for which the “proliferation of HFDPCs” value in the series on HFDPCs (2 μM), in the series with HFDPCs (5 μM) and with HFDPCs (10 μM) was “significantly promotes the proliferation” throughout.
With `Nc1cc(N2CCCCC2)nc(N)[n+]1[O-]` [minoxidil, reference compound], in the series with dorsal skin [1], the “number of genes with decreased expression common among the minoxidil, maslinic acid and tieghemelin treatment groups” value is listed as 316; the “number of genes with increased expression common among the minoxidil, maslinic acid and tieghemelin treatment groups” value is listed as 342. Also, the “influence on the body weight of the mouse” value with C3H male mouse is reported as “No influence on the body weight”.
Take `C[C@@H]1O[C@@H](O[C@H]2[C@H](OC(=O)[C@]34CCC(C)(C)C[C@H]3C3=CC[C@@H]5[C@@]6(C)C[C@H](O)[C@H](O[C@@H]7O[C@H](CO[C@@H]8O[C@H](CO)[C@@H](O)[C@H](O)[C@H]8O)[C@@H](O)[C@H](O)[C@H]7O)[C@@](C)(CO)[C@@H]6[C@H](O)C[C@@]5(C)[C@]3(C)CC4)OC[C@@H](O)[C@@H]2O)[C@H](O)[C@H](O)[C@H]1O[C@@H]1OC[C@@H](O)[C@H](O[C@@H]2OC[C@](O)(CO)[C@H]2O)[C@H]1O` [arganine E]: the “proliferation of HFDPCs” value in the series with HFDPCs (2 μM) was “significantly promotes the proliferation”.
butyroside D: the “expression level of the FGF1 gene in the HFDPC” value with HFDPC [2] (0.5 nM), with HFDPC [2] (5 nM) and in the series on HFDPC [2] (10 nM) was “significantly increased” in each case. The “expression level of the ALPL gene in the HFDPC” value with HFDPC [2] (5 nM) and in the series on HFDPC [2] (10 nM) was “significantly increased” each time. Further, the “expression level of the CTNNB1 gene in HFDPC” value in the series with HFDPC [2] (5 nM) and with HFDPC [2] (10 nM) was “significantly increased” each time. Besides, the “effect of increasing the expression level of the ALPL gene compared with minoxidil positive control (sentence in the FGF1 paragraph)” value in the series with HFDPC [2] (vs 0.1 μM minoxidil) is “more than the effect of the treatment with 0.1 μM minoxidil”. Further, the “proliferation of HFDPCs” value in the series with HFDPCs (2 μM), in the series with HFDPCs (5 μM) and in the series on HFDPCs (10 μM) was “significantly promotes the proliferation” each time. For the same compound, in the series with HFDPC [3], the “effect of increasing the expression level of the ALPL gene compared with minoxidil positive control” value is on record as “more than the effect of the treatment with 0.1 M minoxidil”. Further, in the series with HFDPC [3], the “effect of increasing the expression level of the CTNNB1 gene compared with minoxidil positive control” value is “more than the effect of the treatment with 0.1 M minoxidil”.
As to `C[C@@H]1O[C@@H](O[C@@H]2[C@@H](O)[C@H](O[C@@H]3[C@@H](O)[C@@H](O)[C@H](O[C@H]4[C@H](OC(=O)[C@]56CCC(C)(C)C[C@H]5C5=CC[C@@H]7[C@@]8(C)C[C@H](O)[C@H](O[C@@H]9O[C@H](C(=O)O)[C@@H](O)[C@H](O)[C@H]9O)[C@@](C)(CO)[C@@H]8[C@H](O)C[C@@]7(C)[C@]5(C)C[C@H]6O)OC[C@H](O)[C@@H]4O)O[C@H]3C)OC[C@H]2O)[C@H](O)[C@H](O)[C@H]1O` [tieghemelin], the “stage of the hair follicle from its shape” value in the series on dorsal skin [4] (dorsal skin section) is “anagen (II)”. For the same compound, in the series with dorsal skin [4] (setting [6]), the “expression of K14” value is “highly expressed”, the “expression of VEGF” value is recorded as “highly expressed” and the “expression of β-catenin” value is “highly expressed”. Further, in the series with dorsal skin [1], the “number of genes with decreased expression common among the minoxidil, maslinic acid and tieghemelin treatment groups” value turned out to be 316; the “number of genes with decreased expression common between the minoxidil and tieghemelin treatment groups” value is on record as “Ninety-four”; the “number of genes with increased expression common among the minoxidil, maslinic acid and tieghemelin treatment groups” value came to 342; the “number of genes with increased expression common between the minoxidil and tieghemelin treatment groups” value is “One-hundred-twenty-eight”. The “functions specifically enriched among skin-tissue genes with increased expression (TSEA)” value with dorsal skin [1] (functions not enriched in the minoxidil treatment group) is “the proliferation of keratinocytes and epithelial cells, the control of the MAPK cascade, the intercellular adhesion, and the activation of the cytokine receptor interaction”. Also, in the series on hair cycle-related genes, the “expression level of Aepb1” value is given as “decreased”, the “expression level of KRT15” value is “decreased” and the “expression of NF-κB” value is “decreased”. In the series with Iqcb1, the Iqcb1 expression result is listed as “upregulated” and the “expression level of Iqcb1 compared with the minoxidil treatment group” value was “increased more”. Also, in the series with dorsal skin [5], the “pattern of differentially expressed genes in the dorsal skins” value is recorded as “showed the same pattern”.

Values taken from patent US20250360071A1, “AGENT FOR INDUCING CILIUM” (MED R&D Co. Ltd, priority 2022, published 2025).
